Measured values taken from US5231091A, “Bis-arylphosphate ester antagonists of platelet activating factor” (priority 1992, dated 1993).
Counter-ions that a name gives are not always drawn.

Assays:
[1] = target: T1, PAF receptor (Oryctolagus cuniculus, UniProt G1TEI7); assay: Inhibition of PAF-induced aggregation in rabbit platelet rich plasma; assay type: cell-based, rabbit (male New Zealand White); conditions: rabbit platelet rich plasma; PAF challenge 5E-8M; number of experiments in parentheses; read-out: IC50 inhibition of PAF-induced aggregation
T1 construct: endogenous in cells; host or cells: rabbit platelets (male New Zealand White)
Protocol: Test compounds were evaluated as PAF receptor antagonists in vitro by measuring inhibition of PAF (platelet activating factor) induced platelet aggregation. Platelet aggregation was measured by a modification of the method described in A. Wissner, et. al., J. Med. Chem., 27, 1174, 1984.
Approximately 120-240 ml of blood were collected by cardiac puncture from unanesthetized male New Zealand White rabbits (Whaley's Summit View Farms, Belvedere, N.J.) with the use of 3.2% sodium citrate anticoagulant (1 part of citrate/10 parts of blood). All syringes and pipets were plastic. The blood was gently mixed and immediately centrifuged at 800 rpm for 10-15 minutes at room temperature to recover the platelet rich plasma (PRP). Platelet poor plasma (PPP) was prepared by centrifuging PRP at 2800 rpm for 10 minutes at room temperature.
Dilutions (1:3000) of PRP in Isoton® diluent were made and platelet counts were determined on a Coulter Thrombocounter which was standardized with platelet reference standards (Interscience Platelet Control, Portland, Oreg.). PRP platelet counts were adjusted to approximately 400,000-500,000 platelets/μl by the addition of PPP.
L-PAF was obtained from Calbiochem. A stock solution of 1-2 E-3M was prepared in 10% ethanol in water or 100% methanol and serial working dilutions were made using phosphate buffered saline (PBS). 1-2 E-3M stock solutions of test compounds were prepared in 100% methanol and serially diluted in PBS. All solutions were made up in plastic tubes, stored on ice and protected from heat and light. Solutions were prepared fresh or frozen at -20° C. and used within 48 hours.
Incubation mixtures consisted of 400 μl PRP, 50 μl of PBS diluent or test compound and 50 μl of PAF agonist. More specifically, 400 μl of PRP was stabilized in a cuvette for 1-2 minutes at 37° C. in the aggregometer to achieve a stable baseline, then 50 μl of PBS or test compound, was added and incubated for 5 minutes before addition of the challenge concentration of PAF (final concentration of 5E-8M or 1E-7M, as determined from the dose response curve for PAF for that experiment). Aggregation was monitored for 5 minutes. Samples containing test compound or diluent were run simultaneously for comparison. Test compounds were initially evaluated at a screening concentration of 1E-5M.
The recording equipment consisted of a dual channel Chronolog aggregometer connected to a dual channel 10 MV full scale deflection Omniscribe chart recorder (Houston Instruments). […] The bead suspension was used to set the 0% light transmission mark and clear water was used to set the 100% light transmission mark. These limits defined a full scale deflection. The aggregation traces were analyzed by a digitizing method (C. Kohler and B. Zoltan, J. Pharm. Methods, 12, 113, 1984) with x, y coordinate data stored in a computer file. A suitable program computed parameters of interest such as the magnitude of aggregation.

[2] = test system: endotoxin induced mortality; assay: Endotoxin induced shock and mortality in mice; assay type: in vivo, mouse (male Balb/c)
From the text: The test compounds (PAF antagonists) were also efficacious when administered iv prior to a lethal iv injection of endotoxin (Table IX).

[3] = test system: LPS induced gut leakage; assay: Endotoxin induced hemorragic lesions / LPS induced gut leakage in rats; assay type: in vivo, rat (male Wistar); conditions: for % of control leakage (K), IV LPS induced gut leakage: ± SEM; for protection against LPS induced gut damage: IV LPS
From the text: One of the main sites of LPS induced pathology in the rat and guinea pig is the gut, particularly the duodenum, small intestine and cecum. After LPS exposure hemorragic lesions develop within a few minutes and can involve most of the lumenal surface. The extent of these pathologies can be quantitated histologically or by measuring the amount of plasma proteins that have leaked into the lumen. The second method is much faster and can detect damage in the junctions between capillary or intestinal epithelial cells before gross lesions have developed. Hot tags have shown plasma leakage after LPS challenge using radiolabeled albumin as the probe. In our assay we have chosen to use a non-radioactive tagging method in which plasma albumin is labeled with Evan's blue dye and the lumenal leakage is determined spectrophotometricly.
Evan's blue dye: Sigma e-2129, made as a 1% w/v solution in saline which was filtered and kept refrigerated.
For each experiment fresh 3-[[3-[[hydroxy[2-methoxy-3-(tetradecyloxy)phenoxy]phosphinyl]oxy]phenyl]- methyl]-5-methyl-thiazolium, hydroxide, inner salt was sonicated into saline.
LPS solutions were made fresh for each experiment.
Male Wistar rats, obtained from Charles River, weighing 160-225 gm were maintained in accordance with ALAC standards for at least one week before use.
Food was withheld from the animals for 18 hours before the experiment to clear the intestine. The rats were dosed with 3-[[3-[[hydroxy[2-methoxy-3-(tetradecyloxy)phenoxy]phosphinyl]oxy]phenyl]methyl]-5-methyl-thiazolium, hydroxide, inner salt or saline ip, 4 ml/kg, 1/2 hour before challenge with 25 or 50 mg/kg LPS in the 1% dye at 10 ml/kg. One hour after the LPS insult the animals were sacrificed and the duodenum and initial 6-7 cm of the jejunum isolated. This segment was lavaged with 2 ml of normal saline with the fluid flowing into polyethylene tubes. The lavageate frequently contained mucous and in order to free the stained albumin the samples were sonicated vigorously and then centrifuged to clarify the fluid. The amount of dye was determined spectrophotometrically, using a Vmax microtiter plate reader using the end point mode at […].

T1 sequence (G1TEI7 1-342): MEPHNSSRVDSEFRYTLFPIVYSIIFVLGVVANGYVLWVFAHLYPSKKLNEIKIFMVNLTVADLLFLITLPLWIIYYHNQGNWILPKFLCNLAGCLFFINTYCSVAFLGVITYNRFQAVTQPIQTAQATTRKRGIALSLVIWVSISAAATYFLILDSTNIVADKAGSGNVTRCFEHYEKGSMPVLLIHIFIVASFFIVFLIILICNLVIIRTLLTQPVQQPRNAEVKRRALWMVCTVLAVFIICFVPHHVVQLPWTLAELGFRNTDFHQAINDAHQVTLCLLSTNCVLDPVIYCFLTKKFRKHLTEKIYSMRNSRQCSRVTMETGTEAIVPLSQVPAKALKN

With `CCCCCCCCCCCCCCOc1cccc(OP(=O)([O-])Oc2cccc(C[n+]3csc(C)c3)c2)c1OC` [3-[[3-[[Hydroxy[2-methoxy-3-(tetradecyloxy)phenoxy]-phosphinyl]oxy]phenyl]methyl]-5-methyl-thiazolium, hydroxide, inner salt] the IC50 [1] was 2510 nM, the “24 hour survival, treated” value ([2]; 40 mg/kg IP 2 hours prior to IP endotoxin) was 13/50 and the “Survival after 24 hrs., treated” value ([2]; Table IX, 20 mg/kg iv prior to iv endotoxin, footnote prints IP, control 3/40) was 14/40. The “% of control leakage (K), IV LPS induced gut leakage” value (shortened to “% of control leakage (K)”) ([3]; 0.125 mg/kg IP, Experiment 1) was 24 ± 15%, the “% of control leakage (K)” value ([3]; 0.125 mg/kg IP, Experiment 2) was 107 ± 27% and the “% of control leakage (K)” value ([3]; 0.25 mg/kg IP, Experiment 1) was 36 ± 23%. For the same compound, the “% of control leakage (K)” value ([3]; 0.25 mg/kg IP, Experiment 2) was 65 ± 15%, the “% of control leakage (K)” value ([3]; 0.5 mg/kg IP, Experiment 1) was 15 ± 10% and the “% of control leakage (K)” value ([3]; 0.5 mg/kg IP, Experiment 2) was 16 ± 9%. For the same compound, the “% of control leakage (K)” value ([3]; 1 mg/kg IP, Experiment 1) was 22 ± 15%, the “% of control leakage (K)” value ([3]; 2 mg/kg IP, Experiment 1) was 10 ± 10% and the “% of control leakage (K)” value ([3]; 2 mg/kg IP, Experiment 2) was 18 ± 24%. For the same compound, the “% of control leakage (K)” value ([3]; 2 mg/kg IP, Experiment 3) was 27 ± 11%, the “% of control leakage (K)” value ([3]; 20 mg/kg IP, Experiment 1) was 20 ± 2% and the “% of control leakage (K)” value ([3]; 20 mg/kg IP, Experiment 2) was 19 ± 31%. The “activity seen at doses as low as” value ([3]; IP) was 1/2, the “doses as low as (able to reduce or eliminate damage produced by IV LPS)” value ([3]; IP one hour before challenge) was 1/2 and the “protection against LPS induced gut damage” value ([3]; IP) was “able to reduce or eliminate the damage produced by IV LPS”. For the same compound, the “protection against LPS induced gut damage” value ([3]; IP, listed as 3-[[3-[[hydroxy[2-methoxy-3-(tetradecyloxy)phenoxy]-phosphinyl]oxy]phenyl]-methy) was “very potent protection against the end point of gut pathophysiology”, the “direct observation of the intestinal tract of LPS challenged protected animals” value ([3]; LPS challenge) was “nearly normal appearing guts” and the minimal effective dose ([3]; Rattus norvegicus, ip, read-out: doses as low as (prevents the gut manifestations of endotoxin shock), rats) was 0.25 mg/kg. The “diarrhea in LPS challenged treated animals” value ([3]; virtually all control animals had severe diarrhea) was “little or none”.
